# Results published in publication PMC12102759 (Protein Science : A Publication of the Protein Society, 2025).
# System: PABPC1 PABC
# Type: binding, human
# Settings: DMS-BM library, bait PABPC1 PABC, prey ATXN2, TLNPNAKEFNPRSF(averaged) over the two overlapping peptides; T = wild type, row aa = residue at this position
row,Substance,"DMS-derived PSSM value (averaged), position T1"
1,TLNPNAKEFNPRSF(averaged) T1M (MLNPNAKEFNPRSF),0.04356
2,TLNPNAKEFNPRSF(averaged) T1N (NLNPNAKEFNPRSF),0.01868
3,TLNPNAKEFNPRSF(averaged) T1P (PLNPNAKEFNPRSF),0.02725
4,TLNPNAKEFNPRSF(averaged) T1Q (QLNPNAKEFNPRSF),0.003845
5,TLNPNAKEFNPRSF(averaged) T1R (RLNPNAKEFNPRSF),0.04124
6,TLNPNAKEFNPRSF(averaged) T1S (SLNPNAKEFNPRSF),0.002379
7,TLNPNAKEFNPRSF(averaged) T1V (VLNPNAKEFNPRSF),0.1224
8,TLNPNAKEFNPRSF(averaged) T1W (WLNPNAKEFNPRSF),0.008583
9,TLNPNAKEFNPRSF(averaged) T1Y (YLNPNAKEFNPRSF),0.168

# Same assay, conditions: DMS-BM library, bait PABPC1 PABC, prey ATXN2, peptide TLNPNAKEFNPRSFSQ; A = wild type, row aa = residue at this position
row,Substance,"DMS-derived PSSM value, position A6"
1,TLNPNAKEFNPRSFSQ,0.3958
2,TLNPNAKEFNPRSFSQ A6D (TLNPNDKEFNPRSFSQ),0
3,TLNPNAKEFNPRSFSQ A6E (TLNPNEKEFNPRSFSQ),0
4,TLNPNAKEFNPRSFSQ A6F (TLNPNFKEFNPRSFSQ),0
5,TLNPNAKEFNPRSFSQ A6G (TLNPNGKEFNPRSFSQ),0
6,TLNPNAKEFNPRSFSQ A6H (TLNPNHKEFNPRSFSQ),0
7,TLNPNAKEFNPRSFSQ A6I (TLNPNIKEFNPRSFSQ),0.03549
8,TLNPNAKEFNPRSFSQ A6K (TLNPNKKEFNPRSFSQ),0
9,TLNPNAKEFNPRSFSQ A6L (TLNPNLKEFNPRSFSQ),0
10,TLNPNAKEFNPRSFSQ A6M (TLNPNMKEFNPRSFSQ),0
11,TLNPNAKEFNPRSFSQ A6N (TLNPNNKEFNPRSFSQ),0
12,TLNPNAKEFNPRSFSQ A6P (TLNPNPKEFNPRSFSQ),0
13,TLNPNAKEFNPRSFSQ A6Q (TLNPNQKEFNPRSFSQ),0
14,TLNPNAKEFNPRSFSQ A6R (TLNPNRKEFNPRSFSQ),0
15,TLNPNAKEFNPRSFSQ A6S (TLNPNSKEFNPRSFSQ),0.08307
16,TLNPNAKEFNPRSFSQ A6T (TLNPNTKEFNPRSFSQ),0.2659
17,TLNPNAKEFNPRSFSQ A6V (TLNPNVKEFNPRSFSQ),0.2197
18,TLNPNAKEFNPRSFSQ A6W (TLNPNWKEFNPRSFSQ),0
19,TLNPNAKEFNPRSFSQ A6Y (TLNPNYKEFNPRSFSQ),0

# Same assay, conditions: DMS-BM library, bait PABPC1 PABC, prey ATXN2, peptide TLNPNAKEFNPRSFSQ; E = wild type, row aa = residue at this position
row,Substance,"DMS-derived PSSM value, position E8"
1,TLNPNAKEFNPRSFSQ,0.1068
2,TLNPNAKEFNPRSFSQ E8A (TLNPNAKAFNPRSFSQ),0.02248
3,TLNPNAKEFNPRSFSQ E8D (TLNPNAKDFNPRSFSQ),0
4,TLNPNAKEFNPRSFSQ E8F (TLNPNAKFFNPRSFSQ),0
5,TLNPNAKEFNPRSFSQ E8G (TLNPNAKGFNPRSFSQ),0
6,TLNPNAKEFNPRSFSQ E8H (TLNPNAKHFNPRSFSQ),0.0374
7,TLNPNAKEFNPRSFSQ E8I (TLNPNAKIFNPRSFSQ),0.01296
8,TLNPNAKEFNPRSFSQ E8K (TLNPNAKKFNPRSFSQ),0
9,TLNPNAKEFNPRSFSQ E8L (TLNPNAKLFNPRSFSQ),0
10,TLNPNAKEFNPRSFSQ E8M (TLNPNAKMFNPRSFSQ),0.03925
11,TLNPNAKEFNPRSFSQ E8N (TLNPNAKNFNPRSFSQ),0.1259

# Same assay, conditions: DMS-BM library, bait PABPC1 PABC, prey ATXN2, peptide TLNPNAKEFNPRSFSQ; F = wild type, row aa = residue at this position
Substance,"DMS-derived PSSM value, position F9","DMS-derived PSSM value, position F14"
TLNPNAKEFNPRSFSQ,0.2105,0.06109

# Same assay, conditions: DMS-BM library, bait PABPC1 PABC, prey ATXN2, peptide TLNPNAKEFNPRSFSQ; K = wild type, row aa = residue at this position
row,Substance,"DMS-derived PSSM value, position K7"
1,TLNPNAKEFNPRSFSQ,0.0126

# Same assay, conditions: DMS-BM library, bait PABPC1 PABC, prey ATXN2, peptide TLNPNAKEFNPRSFSQ; L = wild type, row aa = residue at this position
row,Substance,"DMS-derived PSSM value, position L2"
1,TLNPNAKEFNPRSFSQ,0.3849

# Same assay, conditions: DMS-BM library, bait PABPC1 PABC, prey ATXN2, peptide TLNPNAKEFNPRSFSQ; N = wild type, row aa = residue at this position
Substance,"DMS-derived PSSM value, position N3","DMS-derived PSSM value, position N5","DMS-derived PSSM value, position N10"
TLNPNAKEFNPRSFSQ,0.2805,0.009358,0.0868

# Same assay, conditions: DMS-BM library, bait PABPC1 PABC, prey ATXN2, peptide TLNPNAKEFNPRSFSQ; P = wild type, row aa = residue at this position
Substance,"DMS-derived PSSM value, position P4","DMS-derived PSSM value, position P11"
TLNPNAKEFNPRSFSQ,0.1257,0.07425

# Same assay, conditions: DMS-BM library, bait PABPC1 PABC, prey ATXN2, peptide TLNPNAKEFNPRSFSQ; R = wild type, row aa = residue at this position
row,Substance,"DMS-derived PSSM value, position R12"
1,TLNPNAKEFNPRSFSQ,0.03868

# Same assay, conditions: DMS-BM library, bait PABPC1 PABC, prey ATXN2, peptide TLNPNAKEFNPRSFSQ; S = wild type, row aa = residue at this position
Substance,"DMS-derived PSSM value, position S13","DMS-derived PSSM value, position S15"
TLNPNAKEFNPRSFSQ,0.06246,0.03177

# Same assay, conditions: DMS-BM library, bait PABPC1 PABC, prey ATXN2, peptide TLNPNAKEFNPRSFSQ; T = wild type, row aa = residue at this position
row,Substance,"DMS-derived PSSM value, position T1"
1,TLNPNAKEFNPRSFSQ,0.03795
